Source: patent US20250248979A1, “NOVEL GPX4 INHIBITORS AND USES THEREOF” (THE TRUSTEES OF COLUMBIA UNIVERSITY IN THE CITY OF NEW YORK, priority 2022, published 2025)
Converted amounts (≈) assume the structure as drawn. Read-outs that look alike come from different tables or passages of the source.

Key:
[1] = system: HT-1080 cells; assay: Cellular dose response assay, HT-1080 with and without Fer-1; format: cell-based, human; conditions: for Selectivity: ferroptosis selectivity; for ferroptosis induction / potency in HT-1080 cells, result in words: RSL3 as control
Outline: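 Cells were seeded at 1500 per well, grown overnight, then treated in triplicate with 12-point 2-fold compound dilutions (0.4% DMSO final) for 48 h at 37 °C, 5% CO2. HT-1080 series were run with and without Fer-1. Viability was read by CellTiter-Glo luminescence.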

[2] = in vitro; format: in vitro ADME, human; conditions: human, microsomes
Protocol: (§1) […]. The incubation timepoints measured were 0, 5, 10, 15, 30, and 45 minutes. All samples were prepared in duplicate and analyzed by LC-MS/MS.

[3] = in vitro; format: in vitro ADME, mouse; conditions: mouse, microsomes
Protocol: as §1

[4] = not given; remark: listed apart in the source
[5] = molecular target: T1, GPX4 (Homo sapiens, UniProt P36969); assay: GPX4 activity assay in cell lysates (NADPH-coupled); format: biochemical; parameters: endogenous in cells; host or cells: A-673 cell lysate; conditions: for GPX4% inhibition at 20 (μM) / GPX4% inhibition at 200 (μM): generation 2; for GPX4 inhibition / GPX4% inhibition at 200 (μM): 200 μM
T1 sequence (P36969 1-170 isoform P36969-2): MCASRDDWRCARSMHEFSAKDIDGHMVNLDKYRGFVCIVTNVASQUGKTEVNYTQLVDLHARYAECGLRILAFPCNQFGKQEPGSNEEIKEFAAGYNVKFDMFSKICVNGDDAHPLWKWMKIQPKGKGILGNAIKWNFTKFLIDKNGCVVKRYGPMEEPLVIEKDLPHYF
Outline: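 Native GPX4 in lysates of A-673 cells grown with 20 nM sodium selenite; lysate preincubated with compound 45 min at 37 °C in pH 8.0 buffer with 3 mM GSH, 0.5 mM NADPH and glutathione reductase. Reaction started with phosphatidylcholine hydroperoxide; NADPH consumption followed at 340 nm over 25 min; triplicates.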

[6] = system: HepG2 cells; assay: Cellular dose response assay, HepG2; format: cell-based, human; conditions: Table 7
From the text: (§2) HT-1080 (human [Homo sapiens] […] fibrosarcoma), A-673 (human [Homo sapiens] […] Ewing's sarcoma), and SK-HEP-1 (human [Homo sapiens] […] hepatic adenocarcinoma), cells were obtained from ATCC. Huh7 (human [Homo sapiens] […] hepatocellular carcinoma), HLF (human [Homo sapiens] […] hepatocellular carcinoma), HepG2 (human [Homo sapiens] […] hepatocellular carcinoma), cells were obtained from the Cancer Cell Bank at Columbia University Irving Medical Center. HT-1080, A-673, Huh-7, and HLF cells were grown in Dulbecco's Modified Eagle Medium (DMEM) supplemented with 10% heat inactivated fetal bovine serum (HI-FBS), 1% non-essential amino acids, and 1% penicillin streptomycin. HepG2 and SK-HEP-1 cells were grown in Eagle's Minimum Essential Medium (EMEM) supplemented with 10% HI-FBS, and 1% penicillin-streptomycin. All cells were cultured at 37° C. and 5% CO2.
(§3) HT-1080, HepG2, Huh7, HLF, and SK-HEP-1 cells were seeded into opaque white 384-well plates at 1500 cells per well then incubated at 37° C. with 5% CO2 overnight. The next day, compounds of interest were dissolved in DMSO and 12-point 2-fold dilution series were prepared with and without Fer-1. Cells were treated in triplicate (final DMSO concentration of 0.4% in all wells, including DMSO-only control wells) and incubated for a further 48 hours at 37° C. and 5% CO2. Cell viability was evaluated using CellTiter-Glo (Promega G7573) and luminescence was recorded on a Victor 5 plate reader. Data were analyzed in GraphPad Prism 9 and error bars represent standard deviation values for three technical replicates in a representative experiment.

[7] = system: Huh7 cells; assay: Cellular dose response assay, Huh7; format: cell-based, human; conditions: Table 7
From the text: as §2, §3

[8] = system: HLF cells; assay: Cellular dose response assay, HLF; format: cell-based, human; conditions: Table 7
From the text: as §2, §3

[9] = system: SK-HEP-1 cells; assay: Cellular dose response assay, SK-HEP-1; format: cell-based, human; conditions: Table 7
From the text: as §2, §3

[10] = Kinetic aqueous solubility
[11] = system: DTP cells derived from PC9; assay: Drug-tolerant persister cell model, DTP cells; conditions: for % Viability Persister: 48 hours
[12] = HT1080 + Fer-1, read-out: IC50 (uM) HT1080 + Fer-1
[13] = HT1080, without Fer-1, read-out: IC50 (uM) HT1080
[14] = compounds alone, Table 7, read-out: IC50 (uM) HT1080^a
[15] = with fer-1, Table 7, read-out: IC50 (uM) HT1080^b
[16] = compounds alone, read-out: IC50 (uM) HEPG2^a
[17] = with fer-1, read-out: IC50 (uM) HEPG2^b
[18] = compounds alone, read-out: IC50 (uM) Huh7^a
[19] = with fer-1, read-out: IC50 (uM) Huh7^b
[20] = compounds alone, read-out: IC50 (uM) SKHEP1^a
[21] = with fer-1, read-out: IC50 (uM) SKHEP1^b
[22] = 1% DMSO, Phosphate Buffered Saline pH 7.4, 1 hour, ambient, UV/Vis absorbance

Row | SMILES | IC50 [1, 12] [µM] | IC50 [1, 13] [µM] | Microsome Stability t1/2 (min) human [2] [min] | Microsome Stability t1/2 (min) mouse [3] [min] | Plasma Stability t1/2 (min) human [min] | Plasma Stability t1/2 (min) mouse [4] [min] | GPX4% inhibition at 2.5 μM [5] [%] | Solubility ([10]; aqueous solubility, Table 9) [µM] | Selectivity ([1]; HT1080 + Fer-1 vs HT1080) | other results
1 | CC(OC(=O)CCl)C(C)(C)NC(=O)c1nn(C)c2cc(-c3ccc(N4CCOCC4)c(Cl)c3)ccc12 (racemic) [QW-737] | 1.7 | 1 | 8.6 | 7.4 | 275 | 6.6 | 86.4 ± 7.3 |  | 1.7 | 
2 | CC(C)(COC(=O)CCl)NC(=O)c1n[nH]c2cc(Br)ccc12 [QW-313] |  |  | 9.7 | 12.1 |  |  |  | 47 (≈ 18.3 µg/mL) |  | IC50 [1, 14]: 20.4 µM; IC50 [1, 15]: 58.8 µM; IC50 [6, 16]: 12.8 µM; IC50 [6, 17]: 63.1 µM; IC50 [7, 18]: 17 µM; IC50 [7, 19]: 58.2 µM; IC50 [9, 20]: 47 µM; IC50 [9, 21]: 63.7 µM; GPX4% inhibition at 20 (μM) [5]: 53.8 ± 12.1%; GPX4 inhibition [5]: complete inhibition; GPX4% inhibition at 200 (μM) [5]: 97.6 ± 2.5%
3 | COc1ccc(-c2ccc3c(C(=O)NC(C)(C)COC(=O)CCl)nn(C)c3c2)cc1 [QW-454] | 11.5 | 0.94 | 1.8 | 1.7 |  |  |  | 2.9 (≈ 1.25 µg/mL) | 12.2 | ferroptosis induction / potency in HT-1080 cells, result in words [1]: sub-molar range cellular activities and decreased ferroptosis selectivity; Solubility [10, 22]: 2.9 µM (≈ 1.25 µg/mL); GPX4% inhibition at 5 μM [5]: 86.8 ± 2.6%
4 | Cn1nc(C(=O)NC(C)(C)COC(=O)CCl)c2ccc(-c3cccc(Cl)c3)cc21 [QW-458] | 24 | 2 | 1.9 | 1.9 |  |  |  | 6.1 (≈ 2.65 µg/mL) | 12 | Solubility [10, 22]: 6.1 µM (≈ 2.65 µg/mL); GPX4% inhibition at 5 μM [5]: 80.5 ± 3.0%
5 | Cn1nc(-n2cc(C(C)(C)COC(=O)CCl)nn2)c2ccc(-c3ccc(N4CCOCC4)c(Cl)c3)cc21 [QW-680] | 12.1 | 3 | 28 | 26 | 67.4 | 3.2 | 57.3 ± 2.8 |  | 4.0 | 
6 | COc1c(Cl)cc(-c2ccc3c(C(=O)NC(C)(C)C(C)(C)OC(=O)CCl)nn(C)c3c2)cc1Cl [QW-750] | 5.4 | 1.6 | 10.2 | 13.5 | 290 | >1000 | 20.4 ± 3.6 |  | 3.4 | ferroptosis induction / potency in HT-1080 cells, result in words [1]: moderate potency
7 | CC(C)(NC(=O)c1nn(Cc2ccc(Cl)cc2)c2cc(-c3ccc(N4CCOCC4)c(Cl)c3)ccc12)C(C)(C)OC(=O)CCl [QW-811] |  |  |  |  |  |  |  |  |  | Selectivity ([1]; IC50 with Fer-1 / IC50): 45.4; IC50 ([1]; with Fer-1, Table 10, read-out: IC50 (μM) HT1080 + Fer-1): 12.7 µM; IC50 ([1]; without Fer-1, Table 10, read-out: IC50 (μM) HT1080): 0.28 µM; selectivity for DTPs vs PC9 parental cells, result in words [11]: selective and similar or stronger cytotoxicity to DTP cells; % Viability Persister ([11]; dose 1.0 μM): 93.00%; % Viability Persister ([11]; dose 10.0 μM): 4.75%; GPX4% inhibition at 2.5 μM ([5]; 4th generation): 47.4 ± 8.9%

Continued, in another order:

Row | IC50 [1, 12] [µM] | IC50 [1, 13] [µM] | Microsome Stability t1/2 (min) human [2] [min] | Microsome Stability t1/2 (min) mouse [3] [min] | Plasma Stability t1/2 (min) human [min] | Plasma Stability t1/2 (min) mouse [4] [min] | GPX4% inhibition at 2.5 μM [5] [%] | Solubility ([10]; aqueous solubility, Table 9) [µM] | SMILES | Selectivity ([1]; HT1080 + Fer-1 vs HT1080) | other results
8 | 1.8 | 1.6 | 19.5 | 13.0 | 245 | 25.4 | 55.4 ± 8.1 |  | COc1c(Cl)cc(-c2ccc3c(C(=O)NC(C)(C)C(C)OC(=O)CCl)nn(C)c3c2)cc1Cl (racemic) [QW-745] | 1.1 | 
9 |  |  | 2.9 | 1.7 |  |  |  | 98 (≈ 31.7 µg/mL) | Cn1nc(C(=O)NC(C)(C)COC(=O)CCl)c2ccccc21 [QW-312] |  | IC50 [1, 14]: 5.4 µM; IC50 [1, 15]: 76.3 µM; IC50 [6, 16]: 26.2 µM; IC50 [6, 17]: 180 µM; IC50 [7, 18]: 4.2 µM; IC50 [7, 19]: 122 µM; IC50 ([8]; compounds alone, read-out: IC50 (uM) HLF^a): 2.5 µM; IC50 ([8]; with fer-1, read-out: IC50 (uM) HLF^b): 58.1 µM; IC50 [9, 20]: 28.4 µM; IC50 [9, 21]: 202 µM; GPX4% inhibition at 20 (μM) [5]: 72.5 ± 6.7%; GPX4 inhibition [5]: complete inhibition; GPX4% inhibition at 200 (μM) [5]: 95.8 ± 4.0%
10 |  |  | 1.7 | 1.8 | 10.2 | 6.3 |  | <1.3 | Cn1nc(C(=O)NC(C)(C)COC(=O)CCl)c2ccc(-c3csc4ccccc34)cc21 [QW-505] |  | Solubility [10, 22]: <1.3 µM; GPX4% inhibition at 5 μM [5]: 76.1 ± 4.0%
11 |  |  | 15 | 19 | 243 | 311 | 33.6 ± 6.5 |  | COc1ccc(-c2ccc3c(C(=O)NC(C)(C)CNC(=O)CCl)nn(C)c3c2)cc1Cl [QW-628] |  | 
12 | 14.6 | 3.5 |  |  | 12.5 | 6.2 | 26.3 ± 63.2 |  | COc1ccc(CNS(=O)(=O)c2ccc(-c3ccc4c(C(=O)NC(C)(C)COC(=O)CCl)nn(C)c4c3)cc2)cc1 [QW-658] | 4.2 | GPX4% inhibition at 5 μM [5]: 20.9 ± 14.0%
13 | 18.2 | 2.4 | 17 | 19 | 47.9 | 4.7 | 68.0 ± 45.2 |  | Cn1nc(C(=O)NC(C)(C)COC(=O)CCl)c2ccc(-c3ccc(OC(F)(F)F)c(Cl)c3)cc21 [QW-672] | 7.6 | 
14 |  |  |  |  | 16.6 | 23.8 | 35.8 ± 14.3 |  | COc1ccc(-c2ccc3c(C(=O)NC(COC(=O)CCl)C(F)(F)F)nn(C)c3c2)cc1Cl (stereo not drawn) [QW-686] |  | 
15 | 5.7 | 0.59 | 6.6 | 10.7 | 318 | 385 | 98.4 ± 17.6 |  | COc1ccc(-c2ccc3c(C(=O)NC(C)(C)C(C)(C)OC(=O)CCl)nn(C)c3c2)cc1Cl [QW-730] | 9.7 | ferroptosis induction / potency in HT-1080 cells, result in words [1]: sub-micromolar GI50 value
